One assay concerns adult Tenebrio molitor. In words: whole plant or invertebrate. The following applies: in Solanum tuberosum, 24 h. How it is done:
Ten (10) gram pieces of potato were placed into individual jars. […] The acetone-surfactant solution comprised acetone. Triton® 152, and Triton® 172 mixed in volumetric ratio of about 785:1:3. […] Adult Tenebrio molitor and a strip of paper towel 1 cm by 3 cm were added to each jar. Mortality was rated at 1 day after treatment.
If the actually observed value is greater than the expected value […] then there is synergism.

The subject of the next assay is fly larvae. The following applies: 25 ppm of compound (A); surface of poultry dung and cow dung. On the procedure: An application was carried out at the surface of poultry dung and of cow dung treated beforehand with fly larvae.
Assay [1] relates to darkling beetles (Alphitobius diaperinus). Description: Poultry house litter treatment, darkling beetle population monitored with 9 traps. The following applies: water-dispersible granules containing 80% of compound (A), 150 g/ha; during the 10th week (end of a rearing cycle). The format is in vivo. On the procedure:
The treatment took place on the clean litter before the poultry was installed therein. The clean litter was essentially composed of straw.
On the day after the treatment, a group of chicks aged 1 to 2 days was installed in the rearing house at the rate of approximately 7 animals per m^2.
The change in the population of darkling beetles (Alphitobius diaperinus) in the litter was regularly monitored using 9 homogeneously distributed traps. Measurements were carried out each week from the second week after the treatment until rearing was halted.
The total population of darkling beetles in the 9 traps of the treated poultry house varied between 11 and 96 until the 9th week after treatment whereas, in a similar but untreated poultry house, the population of darkling beetles (larvae and adults) oscillated between 1000 and 3000 at each counting point.

Results on two compounds are retold here after patent US6358988B1, “Process and composition for the antiparasitic treatment of the surroundings of animals” (priority 1996, dated 2002).

As a reminder, the mortality is the share of the test organisms that died.

`CNC(=O)Oc1cccc2ccccc12` [Carbaryl, 1-naphthyl methylcarbamate, reference compound]: in the assay with adult Tenebrio molitor, the mortality at 6.25 ppm amounted to 0%, the mortality at 25 ppm turned out to be 27%, the mortality at 100 ppm worked out at 80% and the mortality at 400 ppm came to 93%.

On to `N#Cc1nn(-c2c(Cl)cc(C(F)(F)F)cc2Cl)c(N)c1[S+]([O-])C(F)(F)F` (stereo not drawn) [compound (A), 1-[2,6-Cl2-4-CF3phenyl]-3-CN-4-[SO—CF3]-5-NH2pyrazole], for which, in the assay with fly larvae, the “inhibition of larval development of the flies (effectiveness with respect to untreated controls)” value is recorded as 100%. Also, the “control of darkling beetles” value in assay [1] came out at 86%.
